From PubChem BioAssay (NCI) come the findings set out here.

The structures appear in SMILES notation.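 1) Cells in 96-well plates. 2) Compound, 48 h, 5 concentrations. 3) Linear interpolation between surrounding doses. 4) Unreached endpoint = highest concentration. GI50 = concentration required for 50% inhibition of growth. TGI marks complete inhibition of growth.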

Among the test systems are A498 renal; CAKI-1 renal; COLO 205 colon; HCT-15 colon; IGROV1 ovarian; KM12 colon; MALME-3M melanoma; MCF7 breast; MOLT-4 leukemia; NCI-H226 lung; NCI-H23 lung; NCI/ADR-RES ovarian; OVCAR-4 ovarian; RPMI-8226 leukemia; RXF 393 renal; SK-MEL-28 melanoma; SK-OV-3 ovarian; MDA-MB-231 breast.
Holding throughout (test): DTP human tumour cell line panel, 48 h

A word on the TGI: it is the concentration giving total growth inhibition. Lower therefore signals more potent growth arrest. On to `NCCCCCC(CCN)SCC1OC(n2cnc3c(N)ncnc32)C(O)C1O` (configuration not stated), for which the TGI in the experiment on A498 renal was over 1500 µM; in the experiment with CAKI-1 renal, 1270 µM; in the experiment with COLO 205 colon it was over 1500 µM; in the experiment with HCT-15 colon it was over 1500 µM; in the experiment with IGROV1 ovarian, over 1500 µM; in the experiment on KM12 colon, over 1500 µM. Further, the TGI in the experiment with MALME-3M melanoma, in the experiment with MCF7 breast, in the experiment with MOLT-4 leukemia, in the experiment on NCI-H226 lung, with NCI-H23 lung and in the experiment with NCI/ADR-RES ovarian was over 1500 µM throughout. The TGI was over 1500 µM with OVCAR-4 ovarian; 1140 µM in the experiment with RPMI-8226 leukemia; over 1500 µM with RXF 393 renal; over 1500 µM in the experiment on SK-MEL-28 melanoma; over 1500 µM with SK-OV-3 ovarian.

Consider `Cc1ccc(-c2n[nH]c(=O)n2/N=C\c2ccccc2O)cc1`, for which the TGI with CAKI-1 renal, with COLO 205 colon, in the experiment on HCT-15 colon, with IGROV1 ovarian, with KM12 colon and in the experiment on MALME-3M melanoma was over 100 µM in each case. Further, the TGI in the experiment with MCF7 breast, in the experiment on MDA-MB-231 breast, in the experiment with MOLT-4 leukemia, in the experiment with NCI-H226 lung, in the experiment with NCI-H23 lung and in the experiment with NCI/ADR-RES ovarian was over 100 µM throughout. The TGI in the experiment on OVCAR-4 ovarian, with RPMI-8226 leukemia, in the experiment with RXF 393 renal, in the experiment on SK-MEL-28 melanoma and in the experiment on SK-OV-3 ovarian was over 100 µM each time.

As to `C/C(=N/NC(=O)c1ccncc1)C(F)(F)F`, the concentration for total growth inhibition (TGI) in the experiment with A498 renal, in the experiment with CAKI-1 renal, in the experiment with COLO 205 colon, in the experiment with HCT-15 colon, in the experiment with IGROV1 ovarian and with KM12 colon was over 100 µM in each case. Also, the TGI in the experiment on MALME-3M melanoma, in the experiment with MCF7 breast, in the experiment with MOLT-4 leukemia, in the experiment on NCI-H226 lung, with NCI-H23 lung and in the experiment with NCI/ADR-RES ovarian was over 100 µM in each case. In addition, the concentration for total growth inhibition (TGI) in the experiment on RPMI-8226 leukemia, in the experiment on RXF 393 renal, with SK-MEL-28 melanoma and in the experiment with SK-OV-3 ovarian was over 100 µM in each case.

Consider `CCCN(CCC)C(=S)Sc1nc(C)nc(N2CCN(c3nc(C)nc(SC(=S)N(CCC)CCC)c3[N+](=O)[O-])CC2)c1[N+](=O)[O-]`, for which the TGI in the experiment with CAKI-1 renal was found to be 34.4 µM; in the experiment with COLO 205 colon it was 19 µM; in the experiment with HCT-15 colon, 32.1 µM; in the experiment with IGROV1 ovarian, 41 µM; in the experiment with KM12 colon, 33.4 µM; in the experiment on MALME-3M melanoma it was 45.6 µM. Moreover, the TGI in the experiment on MCF7 breast was 11.9 µM; in the experiment with MDA-MB-231 breast it was 20.3 µM; with MOLT-4 leukemia, 28 µM; with NCI-H226 lung, over 62.2 µM; with NCI-H23 lung, 36.8 µM; in the experiment on NCI/ADR-RES ovarian it was over 100 µM. Moreover, the TGI in the experiment with OVCAR-4 ovarian is 76.5 µM; in the experiment with RPMI-8226 leukemia, over 38.2 µM; in the experiment with RXF 393 renal it was over 29.5 µM; in the experiment on SK-MEL-28 melanoma, 36.9 µM; in the experiment with SK-OV-3 ovarian, over 100 µM.

In general, GI50 refers to the concentration that inhibits growth by half. As to `COC(=O)c1cc2ccc(O)c(O)c2cn1`, the TGI was 25.7 µM in the experiment on CAKI-1 renal; 33.1 µM with COLO 205 colon; 40.4 µM in the experiment with HCT-15 colon; 33.2 µM in the experiment on IGROV1 ovarian; 32 µM in the experiment on KM12 colon; 27.5 µM with MALME-3M melanoma. The TGI in the experiment on MCF7 breast was 8.1 µM; with MDA-MB-231 breast it was 25.2 µM; in the experiment with MOLT-4 leukemia it was over 100 µM; in the experiment on NCI-H226 lung, 36.8 µM; with NCI-H23 lung, 32 µM; in the experiment with NCI/ADR-RES ovarian it was 46.1 µM. The TGI with OVCAR-4 ovarian was 21.7 µM; in the experiment on RPMI-8226 leukemia, over 100 µM; in the experiment with RXF 393 renal it was 32.7 µM; with SK-MEL-28 melanoma, 35.6 µM; in the experiment with SK-OV-3 ovarian, 92.3 µM. Moreover, the GI50 with MOLT-4 leukemia is 4.6 µM; in the experiment on NCI/ADR-RES ovarian, 20.4 µM.

In the case of `NC(Cc1ccc(CP(=O)(O)O)cc1)C(=O)O` (configuration not stated), the TGI with CAKI-1 renal, with COLO 205 colon, in the experiment with HCT-15 colon, in the experiment on IGROV1 ovarian, in the experiment with KM12 colon and with MCF7 breast was over 100 µM in each case. For the same compound, the TGI in the experiment with MDA-MB-231 breast, with MOLT-4 leukemia, in the experiment on NCI-H23 lung, in the experiment on NCI/ADR-RES ovarian, in the experiment on OVCAR-4 ovarian and with RPMI-8226 leukemia was over 100 µM each time. Moreover, the TGI in the experiment with RXF 393 renal, in the experiment on SK-MEL-28 melanoma and in the experiment with SK-OV-3 ovarian was over 100 µM throughout.

Take `CC1(C)CNC(=O)C2(CCCO2)CNC(C)(C)CNC(=O)C2(CCCO2)CN1` (configuration not stated): the TGI in the experiment on CAKI-1 renal, in the experiment with COLO 205 colon, in the experiment with HCT-15 colon, in the experiment on IGROV1 ovarian, with KM12 colon and in the experiment with MALME-3M melanoma was over 10 µM in each case. Further, the TGI in the experiment with MCF7 breast, in the experiment with MDA-MB-231 breast, in the experiment on MOLT-4 leukemia, in the experiment on NCI-H23 lung, in the experiment with NCI/ADR-RES ovarian and with OVCAR-4 ovarian was over 10 µM in each case. Also, the TGI in the experiment on RPMI-8226 leukemia, in the experiment on SK-MEL-28 melanoma and in the experiment with SK-OV-3 ovarian was over 10 µM throughout.

Take `CCNC1=C(NC(=O)c2ccc(F)cc2)C(=O)c2ccccc2C1=O`: the TGI is over 100 µM in the experiment on COLO 205 colon; over 100 µM with HCT-15 colon; over 100 µM in the experiment on IGROV1 ovarian; over 100 µM with KM12 colon; 47.5 µM in the experiment on MALME-3M melanoma; over 100 µM with MCF7 breast. Also, the concentration for total growth inhibition (TGI) with MDA-MB-231 breast, with MOLT-4 leukemia, in the experiment on NCI-H226 lung, in the experiment with NCI-H23 lung, with NCI/ADR-RES ovarian and in the experiment on OVCAR-4 ovarian was over 100 µM each time. The TGI in the experiment on RPMI-8226 leukemia was over 100 µM; in the experiment with RXF 393 renal it was 84.4 µM; in the experiment on SK-MEL-28 melanoma, over 100 µM; in the experiment on SK-OV-3 ovarian it was over 100 µM.
